Data on ten molecules can be found in PMC6588613, “Lupin (Lupinus spp.) seeds exert anthelmintic activity associated with their alkaloid content” (Scientific Reports, 2019).

Values after ≈ are worked out from the molar mass of the structure shown. Where two headings read alike, the source gives them in different places.

Usually IC50 stands for the midpoint of a concentration-inhibition curve.

The target of assay [1] is C. elegans nicotine-sensitive AChR (Cel-N-AChR, acr-16) (Caenorhabditis elegans, UniProt P48180). The experiment in a line: Xenopus laevis oocyte two-electrode voltage-clamp, Cel-N-AChR. The format is cell-based. The source says:
(§1) The lupanine and alkaloid extracts from lupin seeds were perfused on defolliculated X. laevis oocytes (Ecocyte Bioscience, Dortmund, Germany) expressing either the C. elegans nicotine-sensitive nAChR subtype (Cel-N-nAChR, encoded by acr-16[53]), or its levamisole-sensitive counterpart (Cel-L-nAChR, encoded by unc-38, unc-63, unc-29, lev-1 and lev-8[53]). In the lack of H. contortus nicotine-sensitive AChR described, the sole levamisole-sensitive nAChR subtype 1 (Hco-L-nAChR1, encoded by unc-29.1, unc-38, unc-63 and acr-8[29]) from H. contortus was also expressed. Expression of recombinant nAChRs was achieved by microinjection of cRNAs into the oocyte cytoplasm and two-electrode voltage-clamp recordings were carried out as previously described.
Acetylcholine was applied first to check for the presence of functional nAChRs and for current normalization in presence of lupanine or alkaloid extracts.
(§2) Dose-response data were modelled as a log-logistic regression with two parameters, i.e. the curve slope and the associated median excitatory (EC50) or inhibitory (IC50) concentration using the drc package v3.0-1[58]. To account for differences in maximal response values, a third parameter was added for electrophysiology data modelling.
For orientation: Two-electrode voltage clamp is typically applied to oocytes expressing channels or transporters.

For assay [2], the system named is multidrug-resistant H. contortus infective larvae. The experiment in a line: Automated Larval Migration Assay (ALMA), multidrug-resistant isolate. It is filed as cell-based, Haemonchus contortus. Conditions: 250 µg/mL, ± s.d. On the procedure:
(§3) Because of the scarcity of fractionated alkaloidic compounds (2.7 to 12.8 mg), their anthelmintic effect on infective H. contortus larvae was measured using ALMA. This technique relies on larval auto-fluorescence generated through ultraviolet excitation[42],[43]. Every alkaloidic compound was incubated for 4 h at 20 °C with 7,500 H. contortus infective larvae each. Larvae were then passed through a 20 μm sieve and left for a 60 s stabilization time before migration into the spectrofluorimeter cuvette. Cumulative fluorescence resulting from larval migration into the cuvette and correlating the total number of larvae[43] was recorded during 5 min. Each set of experiment was performed in triplicate at a concentration of 250 µg/mL but for compound 2 (150 µg/mL). Levamisole 10 µM was used as a positive control.

The subject of assay [3] is drug-susceptible H. contortus infective larvae. The experiment in a line: Automated Larval Migration Assay (ALMA), drug-susceptible isolate. Conditions: for larval migration as percentage of control larval migration (ALMA): drug-susceptible larvae, 250 µg/mL (compound 2: 150 µg/mL), 4 h, ± s.d. The format is cell-based, Haemonchus contortus.
Description: Parasite material was maintained by the INRA animal parasite nematode collection. Two H. contortus isolates that were. susceptible or resistant to every licensed anthelmintic compound in France (benzimidazoles, levamisole, macrocyclic lactones) were used. […] To establish whether lupin effect was conserved across GIN species, a fully susceptible French T. circumcincta isolate[51] was used. […] For every test, infective larvae were exsheathed with 0.5% hypochlorite solution and rinsed thrice with water before subsequent incubation in 5 mg/mL solutions of either crude maceration, alkaloidic fraction or non-alkaloidic fraction, levamisole (10 µM) or water, for 18 h at 20 °C. At the end of the incubation period, 100 L3 were deposited on migration plates with 20 µm mesh at 38 °C for 2 h as described elsewhere. […] Dose-response assays were run with six control replicates and four replicates by concentration tested (0, 5, 7.5 and 10 mg/mL for E063 alkaloids and 0, 2, 4, 6 and 8 mg/mL for ENERGY alkaloids).
as §3

Another assay deals with mammalian nAChRs. Conditions: cited from earlier work.
Assay [4] has as its system fully susceptible French T. circumcincta isolate. The experiment in a line: microbe, parasite or virus in culture. Conditions: Teladorsagia circumcincta, read-out: IC50 (ALMA).
The subject of assay [5] is multidrug resistant H. contortus isolate. The experiment in a line: In vitro drug susceptibility of the multidrug resistant isolate (assay not given). The format is cell-based, Haemonchus contortus.
In assay [6] the test system is fully susceptible H. contortus isolate.
The subject of assay [7] is susceptible Teladorsagia circumcincta infective larvae. The experiment in a line: Larval migration inhibition assay (LMIA), T. circumcincta. The format is cell-based. Conditions: lyophilized extracts 5 mg/mL, levamisole 10 µM, read-out: Average inhibitory effect (mean).
Description: The inhibitory potential of each variety was computed as: p=1−No.treatedmigratedlarvae/AverageNo.controlmigratedlarvae
Assay [8] has as its system drug-susceptible Haemonchus contortus infective larvae. The experiment in a line: Larval migration inhibition assay (LMIA), fully susceptible isolate. The format is cell-based.
Assay [9] deals with multidrug resistant H. contortus isolate. The format is in vivo, Haemonchus contortus. Conditions: for in vivo Faecal Egg Reduction Test value: 14 days after treatment; for eggs/g 14 days after treatment: before treatment 11400 (levamisole), 1450 (ivermectin).
Assay [10] deals with multidrug-resistant Haemonchus contortus infective larvae. The experiment in a line: Larval migration inhibition assay (LMIA), multidrug resistant isolate. Particulars: levamisole 10 µM. It is filed as cell-based.
Assay [11] relates to C. elegans levamisole-sensitive AChR (Cel-L-AChR). The experiment in a line: Xenopus laevis oocyte two-electrode voltage-clamp, Cel-L-AChR. It is filed as cell-based, Caenorhabditis elegans.
Description: as §1, §2

Assay [12] addresses H. contortus levamisole-sensitive AChR (Hco-L-AChR-1) (Haemonchus contortus, UniProt A9XX24+D6MYE9+D6MYF3+D6MYF4). As to the kind of experiment: Xenopus laevis oocyte two-electrode voltage-clamp, Hco-L-AChR-1. The format is cell-based.
Description: as §1, §2

The test system of assay [13] is susceptible control H. contortus. The experiment in a line: In vitro drug susceptibility of the susceptible control (assay not given). It is filed as cell-based. Conditions: Haemonchus contortus.

Sequence of C. elegans nicotine-sensitive AChR (Cel-N-AChR, acr-16) (P48180 20-498): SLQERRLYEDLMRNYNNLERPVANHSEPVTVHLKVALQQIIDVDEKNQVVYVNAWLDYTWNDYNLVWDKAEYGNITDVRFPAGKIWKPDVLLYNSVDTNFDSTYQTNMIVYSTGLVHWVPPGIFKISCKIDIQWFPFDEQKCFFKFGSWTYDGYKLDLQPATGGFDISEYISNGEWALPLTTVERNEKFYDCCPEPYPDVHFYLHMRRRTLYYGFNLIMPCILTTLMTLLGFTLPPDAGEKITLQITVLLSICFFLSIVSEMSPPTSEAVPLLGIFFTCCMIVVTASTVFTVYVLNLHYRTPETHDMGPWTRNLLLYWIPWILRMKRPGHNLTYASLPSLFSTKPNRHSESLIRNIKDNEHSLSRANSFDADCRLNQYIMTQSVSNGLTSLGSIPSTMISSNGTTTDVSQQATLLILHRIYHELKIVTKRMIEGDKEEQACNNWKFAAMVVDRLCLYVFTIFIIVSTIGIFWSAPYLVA
Sequence of C. elegans levamisole-sensitive AChR (Cel-L-AChR) (Q27218 32-507): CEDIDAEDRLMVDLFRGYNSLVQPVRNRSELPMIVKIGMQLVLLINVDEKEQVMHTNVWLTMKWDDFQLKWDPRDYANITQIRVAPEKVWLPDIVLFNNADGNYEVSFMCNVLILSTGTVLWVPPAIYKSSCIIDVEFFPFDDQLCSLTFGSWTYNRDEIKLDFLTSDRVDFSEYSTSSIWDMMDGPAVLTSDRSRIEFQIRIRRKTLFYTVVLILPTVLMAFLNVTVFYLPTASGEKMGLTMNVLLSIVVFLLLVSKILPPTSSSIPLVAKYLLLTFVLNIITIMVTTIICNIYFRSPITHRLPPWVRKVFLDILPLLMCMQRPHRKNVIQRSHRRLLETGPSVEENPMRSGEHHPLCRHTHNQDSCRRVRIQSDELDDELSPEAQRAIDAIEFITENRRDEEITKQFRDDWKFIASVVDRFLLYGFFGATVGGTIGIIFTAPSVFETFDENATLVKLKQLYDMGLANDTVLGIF
Sequence of C. elegans levamisole-sensitive AChR (Cel-L-AChR) (P48181 27-493, further chain): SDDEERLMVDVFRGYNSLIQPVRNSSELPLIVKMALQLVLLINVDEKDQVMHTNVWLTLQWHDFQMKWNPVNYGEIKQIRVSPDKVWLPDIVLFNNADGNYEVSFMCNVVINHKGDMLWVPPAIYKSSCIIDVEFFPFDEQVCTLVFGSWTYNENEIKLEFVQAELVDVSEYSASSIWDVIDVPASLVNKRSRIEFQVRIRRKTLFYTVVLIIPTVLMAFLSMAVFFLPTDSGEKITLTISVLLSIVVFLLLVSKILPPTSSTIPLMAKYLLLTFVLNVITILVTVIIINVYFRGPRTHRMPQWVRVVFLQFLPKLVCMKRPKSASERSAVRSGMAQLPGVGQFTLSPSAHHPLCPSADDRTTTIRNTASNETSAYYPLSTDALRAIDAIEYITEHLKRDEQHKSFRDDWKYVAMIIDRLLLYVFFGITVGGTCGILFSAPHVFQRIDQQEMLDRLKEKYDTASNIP
Sequence of C. elegans levamisole-sensitive AChR (Cel-L-AChR) (Q23022 17-511, further chain): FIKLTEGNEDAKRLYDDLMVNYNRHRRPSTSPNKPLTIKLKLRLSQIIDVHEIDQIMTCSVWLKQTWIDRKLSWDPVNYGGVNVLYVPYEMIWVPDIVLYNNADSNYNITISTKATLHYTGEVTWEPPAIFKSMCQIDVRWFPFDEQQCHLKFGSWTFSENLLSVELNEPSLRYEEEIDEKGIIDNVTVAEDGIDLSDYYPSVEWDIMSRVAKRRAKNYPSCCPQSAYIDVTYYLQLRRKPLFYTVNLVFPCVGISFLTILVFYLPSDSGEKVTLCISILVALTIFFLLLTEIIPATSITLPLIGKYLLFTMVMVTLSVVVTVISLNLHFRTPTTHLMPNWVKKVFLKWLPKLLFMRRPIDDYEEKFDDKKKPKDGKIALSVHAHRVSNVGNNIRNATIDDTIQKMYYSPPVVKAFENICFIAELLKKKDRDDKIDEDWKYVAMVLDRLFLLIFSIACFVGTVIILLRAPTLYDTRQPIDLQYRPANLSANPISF
Sequence of C. elegans levamisole-sensitive AChR (Cel-L-AChR) (Q9N587 24-502, further chain): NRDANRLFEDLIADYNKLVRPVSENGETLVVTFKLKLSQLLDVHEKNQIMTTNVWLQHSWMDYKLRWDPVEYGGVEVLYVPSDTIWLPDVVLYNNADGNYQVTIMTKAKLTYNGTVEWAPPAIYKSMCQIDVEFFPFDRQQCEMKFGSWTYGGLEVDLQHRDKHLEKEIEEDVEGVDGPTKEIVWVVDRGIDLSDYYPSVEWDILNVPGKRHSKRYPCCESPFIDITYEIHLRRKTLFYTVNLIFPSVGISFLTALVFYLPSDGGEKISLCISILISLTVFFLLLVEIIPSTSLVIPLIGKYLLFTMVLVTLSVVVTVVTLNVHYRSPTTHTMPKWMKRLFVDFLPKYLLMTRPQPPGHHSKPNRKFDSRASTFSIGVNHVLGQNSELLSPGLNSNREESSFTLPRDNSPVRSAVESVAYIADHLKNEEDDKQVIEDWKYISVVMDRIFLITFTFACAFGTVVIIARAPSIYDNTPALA
Sequence of C. elegans levamisole-sensitive AChR (Cel-L-AChR) (Q93329 entry or part of it, further chain): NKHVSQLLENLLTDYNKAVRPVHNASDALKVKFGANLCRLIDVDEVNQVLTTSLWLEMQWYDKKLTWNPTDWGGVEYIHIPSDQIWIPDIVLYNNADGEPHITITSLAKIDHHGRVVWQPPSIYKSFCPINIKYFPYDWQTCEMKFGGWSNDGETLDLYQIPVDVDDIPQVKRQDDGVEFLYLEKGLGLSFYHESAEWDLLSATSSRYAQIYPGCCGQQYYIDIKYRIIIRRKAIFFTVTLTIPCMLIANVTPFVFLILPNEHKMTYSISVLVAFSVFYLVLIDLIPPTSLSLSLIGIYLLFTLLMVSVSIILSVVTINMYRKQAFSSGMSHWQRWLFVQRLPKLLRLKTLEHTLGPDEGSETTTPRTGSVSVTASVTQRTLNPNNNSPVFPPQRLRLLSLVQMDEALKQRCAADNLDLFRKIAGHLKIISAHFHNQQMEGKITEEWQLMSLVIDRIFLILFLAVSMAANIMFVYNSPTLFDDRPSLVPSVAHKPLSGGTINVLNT
Sequence of H. contortus levamisole-sensitive AChR (Hco-L-AChR-1) (D6MYE9 entry or part of it): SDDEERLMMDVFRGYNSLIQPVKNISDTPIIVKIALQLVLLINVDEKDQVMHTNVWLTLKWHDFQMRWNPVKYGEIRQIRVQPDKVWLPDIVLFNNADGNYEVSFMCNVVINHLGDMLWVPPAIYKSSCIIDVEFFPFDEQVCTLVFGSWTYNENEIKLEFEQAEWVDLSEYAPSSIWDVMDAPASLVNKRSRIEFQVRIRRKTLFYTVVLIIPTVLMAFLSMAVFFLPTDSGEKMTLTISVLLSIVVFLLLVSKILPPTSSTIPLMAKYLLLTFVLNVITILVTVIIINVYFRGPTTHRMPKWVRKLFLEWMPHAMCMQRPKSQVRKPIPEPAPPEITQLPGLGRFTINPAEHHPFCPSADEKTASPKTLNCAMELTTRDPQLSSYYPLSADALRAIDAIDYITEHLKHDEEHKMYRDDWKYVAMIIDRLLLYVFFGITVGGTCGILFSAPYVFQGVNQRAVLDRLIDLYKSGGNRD
Sequence of H. contortus levamisole-sensitive AChR (Hco-L-AChR-1) (D6MYF4 entry or part of it): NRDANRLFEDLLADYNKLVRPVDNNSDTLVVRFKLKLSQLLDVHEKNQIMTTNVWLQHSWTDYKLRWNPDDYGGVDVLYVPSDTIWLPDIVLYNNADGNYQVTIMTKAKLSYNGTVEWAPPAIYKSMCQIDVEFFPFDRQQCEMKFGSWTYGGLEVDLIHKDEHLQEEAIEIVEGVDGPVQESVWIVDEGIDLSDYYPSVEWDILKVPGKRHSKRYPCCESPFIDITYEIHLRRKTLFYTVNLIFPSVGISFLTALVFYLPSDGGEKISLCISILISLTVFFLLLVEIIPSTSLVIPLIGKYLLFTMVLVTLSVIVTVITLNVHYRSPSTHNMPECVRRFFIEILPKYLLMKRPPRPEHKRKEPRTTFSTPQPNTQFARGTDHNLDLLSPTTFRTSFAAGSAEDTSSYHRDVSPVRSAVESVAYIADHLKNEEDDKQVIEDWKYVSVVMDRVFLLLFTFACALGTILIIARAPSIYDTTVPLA
Sequence of H. contortus levamisole-sensitive AChR (Hco-L-AChR-1) (A9XX24 entry or part of it): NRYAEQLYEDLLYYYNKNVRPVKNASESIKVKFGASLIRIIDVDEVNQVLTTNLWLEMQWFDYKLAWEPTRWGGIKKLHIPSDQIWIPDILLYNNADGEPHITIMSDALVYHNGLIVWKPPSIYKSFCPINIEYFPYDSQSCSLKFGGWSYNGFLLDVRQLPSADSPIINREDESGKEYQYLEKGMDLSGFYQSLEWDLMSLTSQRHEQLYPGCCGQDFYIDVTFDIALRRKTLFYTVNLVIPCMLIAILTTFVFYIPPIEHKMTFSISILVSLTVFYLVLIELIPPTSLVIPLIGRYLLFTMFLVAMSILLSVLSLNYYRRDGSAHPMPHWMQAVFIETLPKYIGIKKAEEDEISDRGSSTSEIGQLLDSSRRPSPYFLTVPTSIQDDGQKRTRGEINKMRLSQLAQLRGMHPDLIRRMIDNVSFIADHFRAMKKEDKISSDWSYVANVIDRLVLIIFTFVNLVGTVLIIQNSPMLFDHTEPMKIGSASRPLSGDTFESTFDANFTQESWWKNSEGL
Sequence of H. contortus levamisole-sensitive AChR (Hco-L-AChR-1) (D6MYF3 entry or part of it): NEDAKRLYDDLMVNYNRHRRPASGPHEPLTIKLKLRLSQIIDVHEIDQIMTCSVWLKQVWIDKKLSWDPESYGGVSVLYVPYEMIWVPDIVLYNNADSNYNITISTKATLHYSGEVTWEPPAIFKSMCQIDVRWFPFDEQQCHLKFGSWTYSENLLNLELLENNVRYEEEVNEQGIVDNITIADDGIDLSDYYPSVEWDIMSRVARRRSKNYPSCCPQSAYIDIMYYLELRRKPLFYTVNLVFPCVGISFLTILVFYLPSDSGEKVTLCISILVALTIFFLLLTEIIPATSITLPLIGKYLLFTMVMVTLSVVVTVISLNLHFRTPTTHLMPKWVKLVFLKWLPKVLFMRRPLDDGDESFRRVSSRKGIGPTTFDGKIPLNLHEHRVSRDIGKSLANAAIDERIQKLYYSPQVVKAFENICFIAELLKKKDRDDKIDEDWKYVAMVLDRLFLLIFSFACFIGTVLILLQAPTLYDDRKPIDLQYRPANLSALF

Consider `CC(=O)OCC[N+](C)(C)C` [Acetylcholine, acetylcholine], for which the EC50 came out at 21.7 ± 0.9 µM in assay [1] (EC50, acetylcholine alone) and 80.6 ± 27.5 µM in [1] (EC50 of acetylcholine with lupanine (300 µM), in the presence of 300 µM lupanine).

Consider `CC=C(C)C(=O)OC1CCN2C[C@@H]3C[C@@H](CN4C(=O)CCC[C@H]34)[C@@H]2C1` (stereo partly shown) [Compound 1, 13-angeloyloxy or 13-tigloyloxy-lupanine], for which the “larval migration as percentage of control (ALMA)” value in [2] came out at 62.4%. In addition, in assay [3], the “larval migration as percentage of control larval migration (ALMA)” value is reported as 53.6%.

Regarding `O[C@@]12C[C@@H](CN3CCCC[C@H]31)[C@H]1CCCCN1C2` [Compound 4, 7-hydroxysparteine], in assay [3], the “larval migration as percentage of control larval migration (ALMA)” value stood at 76%.

`CC=C(C)C(=O)O[C@H]1CCN2C(=O)[C@@H]3C[C@@H](CN4C(=O)CCC[C@H]34)[C@@H]2C1` [Compound 5]: in assay [3], the “larval migration as percentage of control larval migration (ALMA)” value is listed as “did not significantly inhibit”.

As to `O=C(OC1CCN2C[C@@H]3C[C@@H](CN4C(=O)CCC[C@H]34)[C@@H]2C1)c1ccccc1` (stereo partly shown) [Compound 6], the “larval migration as percentage of control larval migration (ALMA)” value in [3] is reported as “did not significantly inhibit”.

For `O=c1cccc2n1C[C@@H]1CNC[C@H]2C1` [cytisine], in the assay with mammalian nAChRs, the IC50 is 0.14 µM.

In the case of `c1ccc([C@H]2CN3CCSC3=N2)cc1` [levamisole], the IC50 was 1.79 µM in assay [4] and 1.61 µM in assay [8] (Haemonchus contortus, concentration response assay, susceptible H. contortus isolate). For the same molecule, the EC50 in [5] (Haemonchus contortus) came out at 15.6 µM; in [3] (Haemonchus contortus, fully susceptible isolate, read-out: in vitro EC50 (Automated Larval Migration inhibition Assay)), 1.1 µM. In addition, the “Faecal Egg Count reduction in vivo” value in assay [6] was 100%. Further, the inhibition at 10 µM in assay [7] was 73.7%; in [8] (Haemonchus contortus, H. contortus drug susceptible, lyophilized extracts 5 mg/mL, levamisole 10 µM, read-out: Average inhibitory effect), 99.5%; in [8] (Haemonchus contortus, susceptible H. contortus L3, levamisole 10 µM, extract 5 mg/mL, estimate ± s.e.m., read-out: mean inhibition of larval migration), 99.3%; in assay [10] (Haemonchus contortus, H. contortus multidrug resistant, lyophilized extracts 5 mg/mL, read-out: Average inhibitory effect), 30.5%. Besides, the “Percentage of migrating larvae” value in assay [8] (fully susceptible isolate, fractions 2.5 mg/mL, fractions 1 and 8 0.625 mg/mL, levamisole 10 µM, negative control 100) is recorded as 12.1%; in [10] (multidrug-resistant isolate, fractions 2.5 mg/mL, fractions 1 and 8 0.625 mg/mL, negative control 100), 39.7%. The “in vivo Faecal Egg Reduction Test value” in [9] turned out to be 31.6%. Also, the “eggs/g 14 days after treatment” value in assay [9] came out at 7800 eggs/g.

As for `O=C1CCC[C@@H]2[C@H]3C[C@@H](CN12)[C@@H]1CCCCN1C3` [lupanine], the “drop-off in the maximum amplitude of ACh-elicited currents” value in assay [1] (300 µM lupanine) came to 81%. The IC50 was 116 ± 9.7 µM in assay [1] (n = 5, read-out: IC50 on ACh-elicited currents); 549 ± 64.1 µM in assay [11] (read-out: IC50 on ACh-elicited currents, Cel-L-AChR, n = 5); 5 µM in the assay with mammalian nAChRs; 540 ± 90.2 µM in assay [12] (Hco-L-AChR-1, n = 5, read-out: IC50 on ACh-elicited currents). In addition, the “decrease in maximal ACh-elicited current” value in assay [11] (300 µM lupanine, levamisole-sensitive receptors) was 38%. Also, in [8] (concentration response assay, 0 to 3 mM, susceptible isolate, linear, highly variable), the “inhibition of the control migration” value is listed as “less than 25%”. In addition, in assay [12] (read-out: decrease in maximal ACh-elicited current), the inhibition at 300 µM was 38%.

As to `CSc1nc2cc(Cl)c(Oc3cccc(Cl)c3Cl)cc2[nH]1` [triclabendazole], the values for the EC50 in [5] (Haemonchus contortus) and in assay [13] were 0.587 µg/mL and 0.022 µg/mL (≈ 0.0612 µM), respectively.

ivermectin came in with an EC50 in assay [5] of 0.055 µM. Moreover, in [9], the “in vivo Faecal Egg Reduction Test value” stood at 67.8% and the “eggs/g 14 days after treatment” value amounted to 450 eggs/g.
